According to ChEMBL document CHEMBL1151175, “Cytotoxic sesquiterpenoids from Eupatorium chinense” (J Nat Prod, 2004):
Values after ≈ are worked out from the molar mass of the structure shown.

Experiments:
Bel-7402 = test: Cytotoxicity against human Bel7402 cells; type: functional, cell-based
HL-60 = test: Cytotoxicity against human HL60 cells; type: functional, cell-based

Work on `CC[C@@]1(O)C(=O)OCc2c1cc1n(c2=O)Cc2cc3cc(O)ccc3nc2-1` [HYDROXYCAMPTOTHECIN] yielded an IC50 (Bel-7402) of 0.62 µg/mL (≈ 1.7 µM) and an IC50 (HL-60) of 0.024 µg/mL (≈ 0.0659 µM).

In the case of `C=C1C(=O)O[C@@H]2/C=C(\C)C[C@H](O)/C=C(\C)C[C@@H](OC(=O)/C(C)=C/COC(C)=O)[C@@H]12` [EUPACHINILIDE I], the IC50 (Bel-7402) is reported as 3.6 µg/mL (≈ 8.9 µM) and the IC50 (HL-60) is reported as 0.94 µg/mL (≈ 2.32 µM).

For `C=C1C(=O)O[C@H]2[C@H]1[C@H](OC(=O)/C(C)=C\C)CC(CO)=C1C[C@H](O)[C@](C)(O)[C@@H]12` [EUPACHINILIDE A], the IC50 (Bel-7402) was 72.2 µg/mL (≈ 191 µM) and the IC50 (HL-60) was 10.8 µg/mL (≈ 28.5 µM).

For `C=C1C(=O)O[C@H]2[C@H]1[C@H](OC(=O)/C(C)=C/CO)C[C@](O)(CCl)[C@@H]1[C@H](OC(C)=O)[C@H]3O[C@@]3(C)[C@H]21` [EUPACHNILIDE F], the IC50 (Bel-7402) was 3.7 µg/mL (≈ 7.86 µM) and the IC50 (HL-60) was 0.87 µg/mL (≈ 1.85 µM).

For `C=C1C(=O)O[C@H]2[C@H]1[C@H](OC(=O)/C(C)=C/CO)C[C@](O)(CCl)[C@@H]1[C@H](O)[C@H]3O[C@@]3(C)[C@H]21` [EUPACHINILIDE E], the IC50 (Bel-7402) was 18 µg/mL (≈ 42 µM) and the IC50 (HL-60) was 1.3 µg/mL (≈ 3.03 µM).
